From article PMC6028903, “Solubility Thermodynamics of CyMe 4 -BTBP in Various Diluents Mixed with TBP” (Journal of Solution Chemistry, 2018)
≈ marks a conversion by molar mass, not a printed value. Like-named read-outs stand apart in the source and are kept apart here. Marks after values point to notes of the source that are not given here. Blank lines part the entries; values can stand above or below the compound they belong to.

Experiments:
[1] = literature; cited from earlier work
[2] = set-up: method as in earlier work; details: literature; cited from earlier work
[3] = literature; cited from earlier work; remark: listed apart in the source
[4] = 298 K; cited from earlier work
[5] = Solubility of CyMe4-BTBP in GANEX solvents (70% vol diluent, 30% vol TBP), UV-VIS of the Fe2+ complex; type: physicochemical; details: organic solvent or mixture, thermodynamic from solid
[6] = Dissolution thermodynamics of CyMe4-BTBP (van't Hoff linear fit and heat capacity calculation); type: physicochemical; details: for c (288 K), calculated CyMe 4 -BTBP concentration / c (298 K), calculated CyMe 4 -BTBP concentration / c (308 K), calculated CyMe 4 -BTBP concentration: calculated from linear fits; for ΔG^0 (288 K) / ΔG^0 (298 K) / ΔG^0 (308 K): from linear fits; for ΔH^0 / ΔS^0: calculated using ΔCp; for ΔH^0 linear / ΔS^0 linear: linear fit
[7] = 10 mmol/L CyMe4-BTBP, cited from earlier work
[8] = set-up: method as in doi:10.1080/07366299.2011.539462; details: cited from earlier work
[9] = Surface tension against air (du Noüy ring method); type: physicochemical; details: 294 K, 0.1 MPa
Protocol: (§1) The density, ρ , and surface tension, γ , against air (using the du Noüy ring method) for the different solvents was measured at room temperature (293–295 K) using a tensiometer (Sigma 700, Attension). The surface tensiometer ring was lowered into the organic phase until it was totally immersed. The tensiometer then measured the surface tension automatically by slowly pulling out the ring of the organic phase and measuring the force required to detach the ring from the organic surface. The density was measured using the same tensiometer and a calibrated density probe.

[10] = Density (tensiometer with density probe); type: physicochemical; details: 294 K, 0.1 MPa
Protocol: as §1

[11] = Cyclohex./TBP b, pre-equilibrated with HNO3
[12] = Cyclohex./TBP b, pre-equilibrated
[13] = FS-13/TBP b, pre-equilibrated with HNO3
[14] = Octanol/TBP b, pre-equilibrated with HNO3
[15] = Octanol/TBP b, pre-equilibrated

Compound: CCCCCCCCO [1-Octanol, 1-octanol]
- Surface tension [1]: 27.2^a mN · m ^-1
- Density [2]: 0.83^b g · cm ^-3
- Flash point [3]: 358 K^a
- Solvent in water [4]: 0.0538^b wt%
- Water in solvent [4]: 4.2^c wt%

- solubility at 3 days ([5]; GANEX solvent 1-octanol/TBP, 25 °C, Octanol/TBP, 70% vol diluent and 30% vol TBP, 298 K, read-out: CyMe 4 -BTBP solubility at 298 K): 13 mM (≈ 6.95 mg/mL)
- solubility at 3 days ([5]; GANEX solvent FS-13/TBP, 25 °C, FS-13/TBP, 70% vol diluent and 30% vol TBP, 298 K, read-out: CyMe 4 -BTBP solubility at 298 K): 130 mM (≈ 69.5 mg/mL)
- solubility at 3 days ([5]; GANEX solvent FS-13/TBP, 70% vol FS-13 and 30% vol TBP, 4 mol/L NaCl in Milli-Q water instead of nitric acid, single sample, read-out: CyMe 4 -BTBP solubility): 20 mM (≈ 10.7 mg/mL)
- solubility at 3 days ([5]; GANEX solvent FS-13/TBP, 70% vol FS-13 and 30% vol TBP, 4 mol/L hydrochloric acid instead of nitric acid, single sample, read-out: CyMe 4 -BTBP solubility): 30 mM (≈ 16 mg/mL)
- solubility at 3 days ([5]; GANEX solvent FS-13/TBP, 70% vol FS-13 and 30% vol TBP, Milli-Q water instead of nitric acid, single sample, read-out: CyMe 4 -BTBP solubility): 15 mM (≈ 8.02 mg/mL)
- solubility at 3 days ([5]; GANEX solvent cyclohexanone/TBP, 25 °C, Cyclohex./TBP, 70% vol diluent and 30% vol TBP, 298 K, read-out: CyMe 4 -BTBP solubility at 298 K): 180 mM (≈ 96.2 mg/mL)
- c (288 K), calculated CyMe 4 -BTBP concentration ([6]; Cyclohex./TBP a, pristine): 13 mmol · L ^-1
- ΔG^0 (288 K) ([6]; Cyclohex./TBP a, pristine): 10.5 kJ · mol ^-1
- c (298 K), calculated CyMe 4 -BTBP concentration ([6]; Cyclohex./TBP a, pristine): 27 mmol · L ^-1
- ΔG^0 (298 K) ([6]; Cyclohex./TBP a, pristine): 8.9 kJ · mol ^-1
- c (308 K), calculated CyMe 4 -BTBP concentration ([6]; Cyclohex./TBP a, pristine): 56 mmol · L ^-1
- ΔG^0 (308 K) ([6]; Cyclohex./TBP a, pristine): 7.4 kJ · mol ^-1
- ΔH^0 ([6]; Cyclohex./TBP a, pristine): 53 kJ · mol ^-1
- ΔS^0 ([6]; Cyclohex./TBP a, pristine): 150 J · mol ^-1· K ^-1
- ΔH^0 linear ([6]; Cyclohex./TBP a, pristine): 54.4 ± 2.6 kJ · mol ^-1
- ΔS^0 linear ([6]; Cyclohex./TBP a, pristine): 152.4 ± 1.9 J · mol ^-1· K ^-1
- ΔCp [6, 11]: 1.4 kJ · mol ^-1· K ^-1
- ΔH^0 [6, 11]: 15 kJ · mol ^-1
- ΔS^0 [6, 11]: 38 J · mol ^-1· K ^-1
- ΔH^0 linear [6, 11]: 13.3 ± 0.5 kJ · mol ^-1
- ΔS^0 linear [6, 11]: 30.8 ± 0.3 J · mol ^-1· K ^-1
- c (288 K), calculated CyMe 4 -BTBP concentration [6, 12]: 160 mmol · L ^-1
- ΔG^0 (288 K) [6, 12]: 4.4 kJ · mol ^-1
- c (298 K), calculated CyMe 4 -BTBP concentration [6, 12]: 190 mmol · L ^-1
- ΔG^0 (298 K) [6, 12]: 4.1 kJ · mol ^-1
- c (308 K), calculated CyMe 4 -BTBP concentration [6, 12]: 230 mmol · L ^-1
- ΔG^0 (308 K) [6, 12]: 3.8 kJ · mol ^-1
- ΔCp ([6]; FS-13/TBP a, pristine): 1.3 kJ · mol ^-1· K ^-1
- c (288 K), calculated CyMe 4 -BTBP concentration ([6]; FS-13/TBP a, pristine): 14 mmol · L ^-1
- ΔG^0 (288 K) ([6]; FS-13/TBP a, pristine): 10.3 kJ · mol ^-1
- c (298 K), calculated CyMe 4 -BTBP concentration ([6]; FS-13/TBP a, pristine): 16 mmol · L ^-1
- ΔG^0 (298 K) ([6]; FS-13/TBP a, pristine): 10.3 kJ · mol ^-1
- c (308 K), calculated CyMe 4 -BTBP concentration ([6]; FS-13/TBP a, pristine): 17 mmol · L ^-1
- ΔG^0 (308 K) ([6]; FS-13/TBP a, pristine): 10.4 kJ · mol ^-1
- ΔH^0 ([6]; FS-13/TBP a, pristine, 288, 298, 308 K): 8 kJ · mol ^-1
- ΔH^0 linear ([6]; FS-13/TBP a, pristine): 8.3 ± 0.6 kJ · mol ^-1
- ΔH^0 [6, 13]: 27 kJ · mol ^-1
- ΔS^0 [6, 13]: 72 J · mol ^-1· K ^-1
- ΔH^0 linear [6, 13]: 26.6 ± 0.3 kJ · mol ^-1
- ΔS^0 linear [6, 13]: 72.1 ± 0.2 J · mol ^-1· K ^-1
- c (288 K), calculated CyMe 4 -BTBP concentration ([6]; FS-13/TBP b, pre-equilibrated): 90 mmol · L ^-1
- ΔG^0 (288 K) ([6]; FS-13/TBP b, pre-equilibrated): 5.8 kJ · mol ^-1
- c (298 K), calculated CyMe 4 -BTBP concentration ([6]; FS-13/TBP b, pre-equilibrated): 130 mmol · L ^-1
- ΔG^0 (298 K) ([6]; FS-13/TBP b, pre-equilibrated): 5.1 kJ · mol ^-1
- c (308 K), calculated CyMe 4 -BTBP concentration ([6]; FS-13/TBP b, pre-equilibrated): 180 mmol · L ^-1
- ΔG^0 (308 K) ([6]; FS-13/TBP b, pre-equilibrated): 4.4 kJ · mol ^-1
- c (288 K), calculated CyMe 4 -BTBP concentration ([6]; Octanol/TBP a, pristine): 3.4 mmol · L ^-1
- ΔG^0 (288 K) ([6]; Octanol/TBP a, pristine): 13.6 kJ · mol ^-1
- c (298 K), calculated CyMe 4 -BTBP concentration ([6]; Octanol/TBP a, pristine): 4.3 mmol · L ^-1
- ΔG^0 (298 K) ([6]; Octanol/TBP a, pristine): 13.4 kJ · mol ^-1
- c (308 K), calculated CyMe 4 -BTBP concentration ([6]; Octanol/TBP a, pristine): 5.5 mmol · L ^-1
- ΔG^0 (308 K) ([6]; Octanol/TBP a, pristine): 13.3 kJ · mol ^-1
- ΔH^0 ([6]; Octanol/TBP a, pristine): 17 kJ · mol ^-1
- ΔS^0 ([6]; Octanol/TBP a, pristine): 14 J · mol ^-1· K ^-1
- ΔH^0 linear ([6]; Octanol/TBP a, pristine): 18.0 ± 1.1 kJ · mol ^-1
- ΔS^0 linear ([6]; Octanol/TBP a, pristine): 15.0 ± 0.8 J · mol ^-1· K ^-1
- ΔCp [6, 14]: 2.3 kJ · mol ^-1· K ^-1
- ΔH^0 [6, 14]: 21 kJ · mol ^-1
- ΔS^0 [6, 14]: 33 J · mol ^-1· K ^-1
- ΔH^0 linear [6, 14]: 20.0 ± 1.0 kJ · mol ^-1
- ΔS^0 linear [6, 14]: 31.6 ± 0.7 J · mol ^-1· K ^-1
- c (288 K), calculated CyMe 4 -BTBP concentration [6, 15]: 11 mmol · L ^-1
- ΔG^0 (288 K) [6, 15]: 10.9 kJ · mol ^-1
- c (298 K), calculated CyMe 4 -BTBP concentration [6, 15]: 14 mmol · L ^-1
- ΔG^0 (298 K) [6, 15]: 10.6 kJ · mol ^-1
- c (308 K), calculated CyMe 4 -BTBP concentration [6, 15]: 18 mmol · L ^-1
- ΔG^0 (308 K) [6, 15]: 10.2 kJ · mol ^-1
Compound: CC1(C)CCC(C)(C)c2nc(-c3cccc(-c4cccc(-c5nnc6c(n5)C(C)(C)CCC6(C)C)n4)n3)nnc21 [CyMe 4 -BTBP, 6,6′-bis(5,5,8,8-tetramethyl-5,6,7,8-tetrahydrobenzo[1,2,4]triazin-3-yl)[2,2′]bipyridine]
- Americium distribution ratio at 298 K using 10 mmol · L ^-1 CyMe 4 -BTBP ([7]; Cyclohex./TBP): 160^b
- Americium distribution ratio at 298 K using 10 mmol · L ^-1 CyMe 4 -BTBP ([7]; FS-13/TBP): 30^a
- Americium distribution ratio at 298 K using 10 mmol · L ^-1 CyMe 4 -BTBP ([7]; Octanol/TBP): 30^c
- Solubility in a nitric acid aqueous phase [8]: not soluble above the detection limit

- Surface tension [9]: 26.6 ± 0.01 mN · m ^-1
- Density [10]: 1.40 ± 0.01 g · cm ^-3
Compound: O=S(=O)(c1ccccc1)C(F)(F)F [FS-13, phenyl trifluoromethyl sulfone]
- Flash point [3]: 395 K^d

Compound: O=C1CCCCC1 [Cyclohexanone, cyclohexanone]
- Surface tension [1]: 34.4^a mN · m ^-1
- Density [2]: 0.95^b g · cm ^-3
- Flash point [3]: 317 K^a
- Solvent in water [4]: 2.3^b wt%
- Water in solvent [4]: 8.0^b wt%
